# From patent EP0059980A1, “Use of an antimicrobial preservative in ophtalmics and the care of contact lenses” (NATEC Institut für naturwissenschaftlich- technische …, priority 1981, dated 1982)
# Read-outs that look alike come from different tables or passages of the source.
# Experiments:
# [1] = system: Aspergillus fumigatus; assay: Minimal inhibitory concentration (MIC), turbidity method in peptone broth; assay type: cell-based
# Excerpt: (§1) Die antimikrobiellen Wirkungsspektren eines erfindungsgemäß vorgeschlagenen Wirkstoffes, nämlich des Laurinsäurecholinesterchlorids, und im Vergleich dazu von den homologen Essigsäure-, Capronsäure- und Palmitinsäurecholinesterchloriden sowie von den bekannten Konservierungsmitteln Adamantylcarbonsäurecholinesterchlorid und Chlor- 'hexidin-diacetat wurden durch Bestimmung der minimalen Hemmkonzentration nach der Trübungsmethode in Pepton-Nährlösung bei einem pH von 7,0 festgestellt. Diese Methode ist von K.H. Wallhäußer und H. Schmidt in "Sterilisation, Desinfektion, Konservierung, Chemotherapie", Stuttgart (1967), Seite 420-421 beschrieben. Die Ergebnisse sind in Tabelle 1 zusammengestellt.
# [2] = system: Candida albicans ATCC 10231; assay: as above; assay type: cell-based
# Excerpt: as §1
# [3] = system: E. coli ATCC 11229; assay: as above; assay type: cell-based; details: Escherichia coli
# Excerpt: as §1
# [4] = system: Fusorium oxysporum; assay: as above; assay type: cell-based
# Excerpt: as §1
# [5] = system: Staphylococcus aureus ATCC 25923; assay: as above; assay type: cell-based
# Excerpt: as §1
# [6] = system: Streptococcus pyogenes; assay: as above; assay type: cell-based
# Excerpt: as §1
# [7] = system: Pseudomonas aeruginosa; assay: as above; assay type: cell-based; details: Pepton-Nährlösung, pH 7,0
# Excerpt: Die antimikrobiellen Wirkungsspektren eines erfindungsgemäß vorgeschlagenen Wirkstoffes, nämlich des Laurinsäurecholinesterchlorids, und im Vergleich dazu von den homologen Essigsäure-, Capronsäure- und Palmitinsäurecholinesterchloriden sowie von den bekannten Konservierungsmitteln Adamantylcarbonsäurecholinesterchlorid und Chlor- 'hexidin-diacetat wurden durch Bestimmung der minimalen Hemmkonzentration nach der Trübungsmethode in Pepton-Nährlösung bei einem pH von 7,0 festgestellt. […] Die Ergebnisse sind in Tabelle 1 zusammengestellt.
# [8] = system: Bacillus cereus ATCC 11778; assay: as above; assay type: cell-based
# Excerpt: as §1
# [9] = system: Bacillus subtilis ATCC 6633; assay: as above; assay type: cell-based
# Excerpt: as §1
# [10] = system: Enterobacter aerogenes; assay: as above; assay type: cell-based; details: Klebsiella aerogenes
# Excerpt: as §1
# [11] = system: Paecilomyces Ehrlich; assay: as above; assay type: cell-based
# Excerpt: as §1
# [12] = system: Paecilomyces variati; assay: as above; assay type: cell-based
# Excerpt: as §1
# [13] = system: Proteus vulgaris; assay: as above; assay type: cell-based
# Excerpt: as §1
# [14] = system: Pseudomonas fluorescens; assay: as above; assay type: cell-based; details: Pepton-Nährlösung, pH 7,0
# Excerpt: as §1
# [15] = system: Staphylococcus epidermis ATCC 12228; assay: as above; assay type: cell-based
# Excerpt: as §1
# [16] = Acute oral toxicity test; parameters: species or system Mäuse; details: mouse, in vivo, black mice, mean (range in brackets), read-out: oraler LD 50-Wert
# Excerpt: Anhand des Laurinsäurecholinesterchlorids als Beispiel für die erfindungsgemäß verwendeten Laurinsäurecholinestersalze wurde ferner eine akute orale Toxizitätsprüfung durchgeführt, wobei schwarze Mäuse als Versuchstiere dienten. Dabei wurde gefunden, daß der orale LD 50-Wert im Mittel bei 3,15 (2,66 bis 3,74) g/kg Tiergewicht liegt.
# [17] = system: Ratten; assay: Subacute oral toxicity test; assay type: in vivo; details: rats, 20 and 50 mg per kg body weight
# [18] = system: Albino-Meerschweinchen (Pirlbright white); assay: Direct skin irritation test, ointment applied daily for one week; assay type: in vivo; details: 200 ppm in Vaseline ointment base, 12 guinea pigs, daily for one week on shorn flank
# Experimental: (§2) Ferner wurde die Haut- und Schleimhautverträglichkeit von Laurinsäurecholinesterchlorid an Albino-Meerschweinchen aus einem leicht allergisierbaren Stamm (Pirlbright white) von 400 bis 700 g Gewicht und bei kleinwüchsigen Kaninchen von 1,5 bis 3 kg Gewicht geprüft. Die Tiere erhielten Standarddiät und Wasser nach Belieben. Die Raumtemperatur betrug etwa 20 °C, die Luftfeuchtigkeit etwa 50 %, die tägliche Belichtungsdauer 12 Stunden.
# Die Prüfsubstanz wurde in einer Salbengrundlage aus Vaseline mit 200 ppm des Wirkstoffs auf direkte Hautreizung getestet. Bei 12 Meerschweinchen wurde die Präparation eine Woche lang täglich auf einem kurz geschorenen Bezirk an der Flanke aufgetragen und etwa 30 Sekunden eingerieben.
# [19] = system: Albino-Meerschweinchen (Pirlbright white); assay: Skin sensitisation test (induction and provocation phase); assay type: in vivo; details: 200 ppm in Vaseline; three weeks induction, 5 days pause, 3 days provocation; checked after 24 h, 2 and 3 days
# Experimental: as §2
# Daraufhin wurde bei den gleichen Tieren die lokale Anwendung der Prüfsubstanz auf drei Wochen ausgedehnt (Induktionsphase). Nach anschließender 5-tägiger Pause wurde die Prüfsubstanz an drei aufeinanderfolgenden Tagen auf einem nicht vorbehandelten kontralateralen kurzgeschorenen Kontrollbezirk eingerieben (Provokationsphase),.
# Aufgrund dieser Versuche ergab sich kein Hinweis auf sensibilisierende Eigenschaften des Laurinsäurecholinesterchlorids.
# [20] = system: Kaninchenauge; assay: Ocular irritation test according to Draize (mucous membrane tolerance); assay type: in vivo, Kaninchen; details: 2.000 ppm in 0,9 % saline, 0,1 ml in conjunctival sac, eight rabbits
# Experimental: as §2
# Die Prüfung auf Schleimhautverträglichkeit wurde am Kaninchenauge vorgenommen. Die Prüfsubstanz wurde als Lösung von 2.000 ppm Laurinsäurecholinesterchlorid in 0,9 %iger wäßriger Kochsalzlösung im okkulären Reizwirkungstest nach Draize an acht Kaninchen auf Schleimhautverträglichkeit in der folgenden Weise geprüft.
# 0,1 ml der Testlösung wurden im Konjunktivalsack eines Tierauges unter Schließung von Ober- und Unterlid eingebracht. Man ließ die Lösung eine Minute lang einwirken. Das andere Auge wurde zur Kontrolle in gleicher Weise mit destilliertem Wasser behandelt.
# Eine Minute nach der Applikation wurden bei der Hälfte der Tiere die behandelten Augen eine Minute lang mit '10 bis 20 ml lauwarmer physiologischer Kochsalzlösung naChgespült..Die Augen wurden anschließend bei allen behandelten Tieren geprüft.
# [21] = Hydrolytic stability of aqueous solution kept boiling; assay type: physicochemical; details: 5 % aqueous solution
# Excerpt: Die erfindungsgemäß vorgeschlagenen Laurinsäurecholinestersalze besitzen auch die erforderliche Stabilität und Beständigkeit. So wurde eine 5 %ige wäßrige Laurinsäurecholinesterchloridlösung 8 Stunden am Sieden gehalten. Danach wurde eine nur unwesentliche Zunahme des Säuregehalts der Trockensubstanz von 2,5 auf 3,9 % festgestellt. Demnach kann unter den Bedingungen, unter denen die erfindungsgemäß vorgeschlagenen Wirkstoffe normaler; weise als Konservierungsmittel eingesetzt werden, eine hydrolytische Spaltung des Wirkstoffes praktisch ausgeschlossen werden.
# [22] = system: Bakterien, Hefen und Schimmelpilze; assay: Preservative challenge test according to USP XIX; assay type: cell-based; details: 0,01 % in sterile aqueous solution; criteria of Wallhäußer for category I products, up to 28 days
# Excerpt: Als Beispiel für die erfindungsgemäß vorgesehenen Konservierungsmittel wurde Laurinsäurecholinesterchlorid einem Konservierungsbelastungstest nach der Vorschrift USP XIX unterworfen und mit bekannten Konservierungsmitteln, die in Kontaktlinsen-Pflegelösungen eingesetzt werden und dem gleichen Test unterworfen wurden, verglichen.. Die USP XIX schreibt vor, daß bei einem entsprechenden Belastungstest, bei dem man von einer Ausgangskeimzahl von […] ausgeht, ein'e Verminderung der Keimzahl innerhalb von 14 Tagen um 99,9 % bei den zugesetzten Bakterien erreicht wird und daß sich die zugesetzten Pilzsporen und Hefen innerhalb der gleichen Zeit nicht signifikant vermehren.
# Um die antimikrobielle Wirkung der verschiedenen untersuchten Konservierungsmittel besser vergleichen zu können, wurden die Belastungstest bei jeweils gleicher Wirkstoffkonzentration (0,01 % in steriler wäßriger Lösung) und bei gleicher Ausgangsbelastung des jeweils eingesetzten Stammes durchgeführt. In den Tabellen 2 bis 5 sind die Keimzahlen nach jeweils 2 und 10 Minuten sowie nach 1 Stunde, 2 und 24 Stunden angegeben, in den Tabellen 6 bis 9 sind die Ergebnisse nach 1 Tag, 7, 14, 21 und 28 Tagen festgehalten, da die Keimzahlen während der weiteren Laufzeit bis zum 28. Tag bei guter Konservierung nicht mehr ansteigen dürfen.
# Wie aus der Monographie von K.H. Wallhäußer, Sterilisation, Desinfektion, Konservierung, 2. […]
# [23] = Hydrolysis in presence of pancreatic juice under simulated physiological conditions
# Experimental: (§3) Ferner wurde eine 1 %ige wäßrige Laurinsäurecholinesterchloridlösung in Gegenwart von Pankreassaft simulierten physiologischen Bedingungen (38°C) ausgesetzt und nach 1 Stunde und nach 24 Stunden Proben gezogen und auf entstandene freie Fettsäuren untersucht. Dazu wurden die Proben mit Petroläther extrahiert und im Extrakt ' die Fettsäuren mikroanalytisch bestimmt.
# [24] = pancreatic juice
# Experimental: as §3
# [25] = Pepton-Nährlösung, pH 7,0, read-out: MIC-Werte
# [26] = ATCC10231, Candida albicans ATCC 10231, Pepton-Nährlösung, pH 7,0, read-out: MIC-Werte
# [27] = ATCC11229, E. coli ATCC 11229, Pepton-Nährlösung, pH 7,0, read-out: MIC-Werte
# [28] = Fusorium oxysporum, Pepton-Nährlösung, pH 7,0, read-out: MIC-Werte
# [29] = ATCC25923, Staphylococcus aureus ATCC 25923, Pepton-Nährlösung, pH 7,0, read-out: MIC-Werte
# [30] = Candida albicans, ATCC10231, pH 7, read-out: MIC-Werte
# [31] = ATCC11229, pH 7, read-out: MIC-Werte
# [32] = Paecilomyces, pH 7, read-out: MIC-Werte
# [33] = Staphylococcus aureus, ATCC25923, pH 7, read-out: MIC-Werte
smiles,measurement,setting,value
CCCCCCCCCCCCCCCC(=O)OCC[N+](C)(C)C [Palmitinsäurecholinesterchlorid],MIC,[1]; [25],100 µg/mL
same,MIC,[2]; [26],100 µg/mL
same,MIC,[3]; [27],> 400 µg/mL
same,MIC,[4]; [28],> 400 µg/mL
same,MIC,[5]; [29],2.5 µg/mL
same,MIC,[6]; [25],1.25 µg/mL
same,MIC,[7],> 400 µg/mL
C[N+](C)(C)CCOC(=O)C12CC3CC(CC(C3)C1)C2 [Adamantylcarbonsäurecholinesterchlorid],MIC,[1]; [25],> 400 µg/mL
same,MIC,[2]; [26],> 400 µg/mL
same,MIC,[3]; [27],> 400 µg/mL
same,MIC,[4]; [28],> 400 µg/mL
same,MIC,[5]; [29],200 µg/mL
same,MIC,[6]; [25],20 µg/mL
same,MIC,[7],> 400 µg/mL
CCCCCCCCCCCC(=O)OCC[N+](C)(C)C [Laurinsäurecholinesterchlorid],MIC,"[1]; pH 7, read-out: MIC-Werte",10 µg/mL
same,MIC,"[8]; Bacillus cereus, ATCC11778, pH 7, read-out: MIC-Werte",3.13 µg/mL
same,MIC,"[9]; Bacillus subtilis, ATCC6633, pH 7, read-out: MIC-Werte",0.78 µg/mL
same,MIC,[2]; [30],10 µg/mL
same,MIC,[3]; [31],10 µg/mL
same,MIC,"[10]; pH 7, read-out: MIC-Werte",100 µg/mL
same,MIC,"[4]; pH 7, read-out: MIC-Werte",3.13 µg/mL
same,MIC,[11]; [32],0.78 µg/mL
same,MIC,[12]; [32],0.78 µg/mL
same,MIC,"[13]; pH 7, read-out: MIC-Werte",200 µg/mL
same,MIC,[14],2.5 µg/mL
same,MIC,[5]; [33],2.5 µg/mL
same,MIC,"[15]; Staphylococcus, ATCC12228, pH 7, read-out: MIC-Werte",0.78 µg/mL
same,MIC,"[6]; pH 7, read-out: MIC-Werte",0.16 µg/mL
same,MIC,[7],20 µg/mL
same,LD50,[16],3150 mg/kg
same,Wirkungen bei subakuter oraler Toxizitätsprüfung,[17],keine Wirkungen
same,direkte Hautreizung (Hautreaktionen),[18],keine Hautreakticnen
same,Reaktion im Kontrollbezirk (Sensibilisierung),[19],in keinem Falle eine Reaktion
same,"Reaktion im Sinne von Rötung, Schwellung, Sekretion oder Hornhautveränderung",[20]; 1 min,In keinem Falle kam es zu einer Reaktion
same,spontane Abwehrreaktionen,[20],keine spontanen Abwehrreaktionen
same,Säuregehalt der Trockensubstanz,[21]; after 8 hours boiling,"3,9%"
same,Säuregehalt der Trockensubstanz,[21]; before boiling,"2,5%"
same,Bedingungen für ausreichende Konservierung (Abfall der Keimzahl),[22],weit übertroffen
same,Hydrolyse im Kontrollversuch ohne Pankreassaft,"[23]; control without pancreatic juice, 38°C",keine Hydrolyse
same,metabolised at 1 h,[23]; pancreatic juice,1.5%
same,metabolised at 24 h,[23]; pancreatic juice,2.5%
N=C(NCCCCCCNC(=N)NC(=N)Nc1ccc(Cl)cc1)NC(=N)Nc1ccc(Cl)cc1 [Chlorhexidin-diacetat],MIC,[1]; [25],12.5 µg/mL
same,MIC,"[8]; ATCC11778, Bacillus cereus ATCC 11778, Pepton-Nährlösung, pH 7,0, read-out: MIC-Werte",0.78 µg/mL
same,MIC,"[9]; ATCC6633, Bacillus subtilis ATCC 6633, Pepton-Nährlösung, pH 7,0, read-out: MIC-Werte",0.78 µg/mL
same,MIC,[2]; [26],3.13 µg/mL
same,MIC,[3]; [27],3.13 µg/mL
same,MIC,"[10]; Enterobacter aerogenes, Pepton-Nährlösung, pH 7,0, read-out: MIC-Werte",12.5 µg/mL
same,MIC,[4]; [28],12.5 µg/mL
same,MIC,"[11]; Paecilomyces Ehrlich, Pepton-Nährlösung, pH 7,0, read-out: MIC-Werte",0.78 µg/mL
same,MIC,"[12]; Paecilomyces variati, Pepton-Nährlösung, pH 7,0, read-out: MIC-Werte",1.56 µg/mL
same,MIC,[13]; [25],50 µg/mL
same,MIC,[5]; [29],1.56 µg/mL
same,MIC,"[15]; ATCC12228, Staphylococcus epidermis ATCC 12228, Pepton-Nährlösung, pH 7,0, read-out: MIC-Werte",0.78 µg/mL
same,MIC,[6]; [25],0.78 µg/mL
CC(=O)OCC[N+](C)(C)C [Essigsäurecholinesterchlorid],MIC,"[1]; pH 7, read-out: MIC-Werte",> 400 µg/mL
same,MIC,[2]; [30],> 400 µg/mL
same,MIC,[3]; [31],> 400 µg/mL
same,MIC,[4]; [28],> 400 µg/mL
same,MIC,[5]; [33],> 400 µg/mL
same,MIC,"[6]; pH 7, read-out: MIC-Werte",100 µg/mL
same,MIC,[7],> 400 µg/mL
CCCCCC(=O)OCC[N+](C)(C)C [Capronsäurecholinesterchlorid],MIC,[1]; [25],> 400 µg/mL
same,MIC,[2]; [26],> 400 µg/mL
same,MIC,[3]; [27],> 400 µg/mL
same,MIC,[4]; [28],> 400 µg/mL
same,MIC,[5]; [29],> 400 µg/mL
same,MIC,[6]; [25],100 µg/mL
same,MIC,[7],> 400 µg/mL
CCCCCCCC(=O)OCC(O)CO (stereo not drawn) [Glycerinmonocaprylat],Abbauquote,[24],"13,8%"
